Results published in US7208140B2, “Trimeric macrocyclic substituted benzene derivatives” (Schering Aktiengesellschaft, priority 2003, dated 2007).
Several values for one entry are separate records, joined by “and”; a condition that tells them apart may be missing. Equal entries are not always repeated.

Legend:
[1] = Distribution coefficient in 1-butanol and tris-HCl buffer; format: physicochemical; conditions: for Distribution Coefficient of Butanol/Water: 1-butanol and tris-HCl buffer at pH 7.6
Experimental: The distribution coefficient of Example 3F was determined in comparison to Gadovist, iopromide and iotrolan in 1-butanol and tris-HCl buffer at pH 7.6.

[2] = tested on: Epithelial cell line MDCK; test: Neutral red test of cell viability in epithelial cells of the distal renal tubule; format: cell-based, canine; conditions: 50% reduction of cell viability after 24 hours
Experimental: To determine the IC-50, the neutral red test was used in epithelial cells of the distal renal tubule. In addition, this test is very helpful for predicting with high accuracy the LD-50 values of newly synthesized compounds.
Epithelial cell line MDCK of the renal distal renal tubule of a canine kidney (ECACC No. 85011435) was incubated from 10,000 cells/well in Alpha MEM Eagle (10% fetal bovine serum) at 37° C. and 5% CO2, 95% atmospheric humidity for 20 hours with various Examples 1B, 3F and 5F. Neutral red was used as an indicator for cell viability and for measuring lyosomal integrity and employed to determine those contrast medium concentrations in which a 50% reduction of cell viability (IC-50) occurred after 24 hours.
Four independent replicates were tested for each concentration of contrast medium. […] The latter is a reference compound in clinical practice and a contrast medium with proven excellent compatibility. The highest compatibility was found for Example 3F with 1170 μmol of I eq/ml.

Male Wistar rats = test: CT studies (computer tomography) of rats after intravenous injection; format: in vivo, rat; conditions: i.v.
Experimental: By way of example, the suitability of the described compound class was examined in Example 1B with the aid of computer tomography (CT) of rats. For the CT studies, a Siemens Somatom CR was available. The 5-second image was prepared with a layer thickness of 2 mm and a tube voltage of 125 kV. Substance 1B was formulated as an aqueous solution at a concentration of 0.17 mol/l (corresponds to 145 mg (1+Gd)/ml.
Male Wistar rats (400 g of body weight) were scanned before (FIG. 1a) and after intravenous injection (FIG. 1) of 1B in a dose of 0.15 mmol/kg (corresponds to 127 mg of (I+Gd)/kg).
This early phase reflects the blood perfusion of the renal cortex.

Wistar rats = test: MRT studies (angiography and organ visualization) of rats after intravenous injection; format: in vivo, rat; conditions: i.v.
Experimental: The same substance (IB) was examined with the aid of magnetic resonance tomography (MRT) as a contrast medium.
The MRT studies were performed on a 1.5 T device (Siemens Symphonie with 40 mT/m gradients). 400 g Wistar rats were examined with T1-weighted image sequences (angiography TR 2.54 ms, TE 1.12 ms und α=40° or organ visualization TR 54 ms, TE 4.8 ms and α=40°). The angiography (MRA, FIG. 3) was from 0–60 seconds p.i., and the organ visualization (FIGS. 4a and b) was prepared 15 minutes after the injection. Substance 1B was formulated as an aqueous solution at a concentration of 0.17 mol/l (corresponds to 0.5 mol of Gd/l) and was intravenously injected in a dose of 0.03 mmol of substance or 0.1 mmol of Gd/kg.

| SMILES | Distribution Coefficient of Butanol/Water [1] | IC50 [2] | other results |
| --- | --- | --- | --- |
| O=C([O-])CN1CCN(CC(=O)[O-])CCN([C@H](CO)[C@H](O)CO)CCN(CC(=O)[O-])CC1.[Gd+3] (racemic) [Gadobutrol, reference compound] | 0.006 ± 0.0007 | 153 μmol of I eq/ml |  |
| CC(C(=O)NCC(=O)NCCNC(=O)c1c(I)c(C(=O)NCCNC(=O)CNC(=O)C(C)N2CCN(CC(=O)[O-])CCN(CC(=O)[O-])CCN(CC(=O)[O-])CC2)c(I)c(C(=O)NCCNC(=O)CNC(=O)C(C)N2CCN(CC(=O)[O-])CCN(CC(=O)[O-])CCN(CC(=O)[O-])CC2)c1I)N1CCN(CC(=O)[O-])CCN(CC(=O)[O-])CCN(CC(=O)[O-])CC1.[Gd+3].[Gd+3].[Gd+3] (stereo not drawn) [Example 1B, 1,3,5-Triiodotrimesic acid-N,N,N-tris-(3,6-diaza-4,7-dioxo-8-methyloctane-1,8-diyl-{10-[1,4,7-tris-(carboxylatomethyl)-1,4,7,10-tetraazacyclododecanyl, Gd-complex]})amide] |  | 930 μmol of I eq/ml | CT contrasting of vessels and renal cortex (early phase) (Male Wistar rats; 0.15 mmol/kg (127 mg of (I+Gd)/kg), 125 kV): very clear contrasting of the blood-conveying vessels (A) and the renal cortex (N); renal excretion (contrasting of renal pelvis in CT) (Male Wistar rats; 0.15 mmol/kg, 15 minutes later): quick renal excretion; MRA visualization of arteries and heart (Wistar rats; 0.03 mmol of substance or 0.1 mmol of Gd/kg, 1.5 T, 0-60 seconds p.i.): excellent ability to visualize the large arteries (aorta, femoral artery) as well as the heart; MRT whole-body image, organ contrasting (Wistar rats; 0.1 mmol of Gd/kg, 1.5 T, 15 minutes after the injection): clear contrasting of liver (L) as well as kidneys; renal elimination (ureter visualized in MRT) (Wistar rats; 0.1 mmol of Gd/kg, 15 minutes after the injection): quick renal elimination |
| O=C([O-])CN1CCN(CC(=O)[O-])CCN(CC(=O)NCCNC(=O)c2c(I)c(C(=O)NCCNC(=O)CN3CCN(CC(=O)[O-])CCN(CC(=O)[O-])CCN(CC(=O)[O-])CC3)c(I)c(C(=O)NCCNC(=O)CN3CCN(CC(=O)[O-])CCN(CC(=O)[O-])CCN(CC(=O)[O-])CC3)c2I)CCN(CC(=O)[O-])CC1.[Gd+3].[Gd+3].[Gd+3] [Example 3F, 2,4,6-Triiodotrimesic acid-N,N,N-tris-(3-aza-4-oxopentane-1,5-diyl-{10-[1,4,7-tris-(carboxylatomethyl)-1,4,7,10-tetrazacyclododecanyl, Gdcomplex]})amide] | 0.0002 and 0.0002 ± 0.0001 | 1170 μmol of I eq/ml |  |
| O=C([O-])CN1CCN(CC(=O)[O-])CCN(CC(O)CNC(=O)c2c(I)c(C(=O)NCC(O)CN3CCN(CC(=O)[O-])CCN(CC(=O)[O-])CCN(CC(=O)[O-])CC3)c(I)c(C(=O)NCC(O)CN3CCN(CC(=O)[O-])CCN(CC(=O)[O-])CCN(CC(=O)[O-])CC3)c2I)CCN(CC(=O)[O-])CC1.[Gd+3].[Gd+3].[Gd+3] (stereo not drawn) [Example 5G, 1,3.5-Triiodotrimesic acid-N,N,N-tris-(2-hydroxypropane-1,3-diyl-{10-[1,4,7-tris-(carboxylatomethyl)-1,4,7,10-tetraazacyclododecanyl]}, Gdcomplex)amide] |  | 788 μmol of I eq/ml |  |
| COCC(=O)Nc1c(I)c(C(=O)NCC(O)CO)c(I)c(C(=O)N(C)CC(O)CO)c1I (stereo not drawn) [Iopromide] | 0.051 ± 0.003 |  | distribution coefficient of butanol/water relative to Example 3F ([1]; 0.051 vs. 0.0002): ≤ 255 ×; Distribution Coefficient of Butanol/Water ([1]; listed as lopromide): 0.051 |
| CN(C(=O)CC(=O)N(C)c1c(I)c(C(=O)NC(CO)C(O)CO)c(I)c(C(=O)NC(CO)C(O)CO)c1I)c1c(I)c(C(=O)NC(CO)C(O)CO)c(I)c(C(=O)NC(CO)C(O)CO)c1I (stereo not drawn) [Iotrolan] | 0.0065 ± 0.002 |  |  |
